Experimental data published in ChEMBL document CHEMBL1140598, “A review of anti-infective and anti-inflammatory chalcones” (Eur J Med Chem, 2007).
≈ marks a conversion by molar mass, not a printed value.

Key:
Trichophyton rubrum = test: Antifungal activity against Trichophyton rubrum; type: functional
RAW = test: Inhibition of nitric oxide production in LPS-stimulated mouse RAW 264.7 cells; type: functional, cell-based
Plasmodium falciparum [1] = test: Antiplasmodial activity against chloroquine-sensitive Plasmodium falciparum D6; type: functional, organism-based
Plasmodium falciparum [2] = test: Antiplasmodial activity against chloroquine-resistant Plasmodium falciparum W2; type: functional, organism-based
Plasmodium falciparum [3] = test: Antimalarial activity against chloroquine-resistant Plasmodium falciparum K1 by [3H]hypoxanthine incorporation; type: functional, organism-based
Leishmania major = test: Growth inhibition of Leishmania major promastigotes assessed as [3H]thymidine incorporation; type: functional, organism-based
Leishmania donovani [4] = test: Inhibition of Leishmania donovani amastigotes in human monocyte-derived macrophages; type: functional, organism-based
Plasmodium falciparum [5] = test: Antimalarial activity against Plasmodium falciparum; type: functional, organism-based
Staphylococcus aureus [6] = test: Antibacterial activity against Staphylococcus aureus; type: functional, organism-based
Colletotrichum truncatum [7] = test: Antifungal activity against Colletotrichum capsici; type: functional
[8] = test system: Mycobacterium tuberculosis; test: Antibacterial activity against Mycobacterium tuberculosis H37Rv at 12.5 ug/mL; type: functional
Colletotrichum truncatum [9] = test: Antifungal activity against Colletotrichum truncatum CE175; type: functional, Glomerella truncata
Diaporthe longicolla = test: Antifungal activity against Phomopsis longicolla Hobbs CE117; type: functional
Candida albicans = test: Antifungal activity against Candida albicans; type: functional, organism-based
Cryptococcus neoformans = test: Antifungal activity against Cryptococcus neoformans; type: functional, organism-based
Trypanosoma cruzi = test: Growth inhibition of Trypanosoma cruzi epimastigotes; type: functional, organism-based
[10] = target: Protease (Human immunodeficiency virus 1) (UniProt Q9YQ12); test: Inhibition of HIV1 protease at 50 ug/mL
Leishmania braziliensis = test: Growth inhibition of Leishmania braziliensis promastigotes; type: functional, organism-based
[11] = Inhibition of Leishmania donovani solubilized fumarate reductase
Staphylococcus aureus [12] = test: Antibacterial activity against methicillin-resistant Staphylococcus aureus; type: functional, organism-based
Enterococcus faecium = test: Antibacterial activity against Enterococcus faecium; type: functional
Escherichia coli = test: Antibacterial activity against Escherichia coli; type: functional
Leishmania donovani [13] = test: Antileishmanial activity against Leishmania donovani promastigotes at 50 ug/mL; type: functional
Leishmania donovani [14] = test: Antileishmanial activity against Leishmania donovani amastigotes in mouse macrophages at 50 ug/mL; type: functional

Sequence of Protease (Human immunodeficiency virus 1) (Q9YQ12 as listed by the source): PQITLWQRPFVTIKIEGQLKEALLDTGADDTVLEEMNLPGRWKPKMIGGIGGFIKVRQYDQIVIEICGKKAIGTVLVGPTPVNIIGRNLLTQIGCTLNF

SMILES: COc1cc(O)c(C(=O)/C=C/c2ccccc2Cl)c(OC)c1
- MIC (Trichophyton rubrum): 12.5 µg/mL (≈ 39.2 µM)

SMILES: COc1cccc(OC)c1C(=O)/C=C/c1ccc(N(C)C)cc1
- IC50 (RAW): 0.6 µM

SMILES: COc1cc(/C=C/C(=O)c2ccc(O)cc2O)ccc1O [HOMOBUTEIN]
- IC50 (Plasmodium falciparum [1]): 10.3 µM
- IC50 (Plasmodium falciparum [2]): 10.3 µM

SMILES: O=C(/C=C/c1ccc(F)cc1F)c1ccc(O)cc1O
- IC50 (Plasmodium falciparum [3]): 20 µM

SMILES: COc1ccc(C(=O)/C=C/c2ccc(C(F)(F)F)cc2)c(OC)c1OC
- IC50 (Plasmodium falciparum [3]): 6.5 µM

SMILES: CC(C)=CCc1cc(/C=C/C(=O)c2ccc(O)cc2O)cc(O)c1O [5'-PRENYLBUTEIN]
- IC50 (Plasmodium falciparum [1]): 10.3 µM
- IC50 (Plasmodium falciparum [2]): 10.3 µM

SMILES: COc1ccc(/C=C/C(=O)c2ccc(O)cc2)c(OC)c1
- IC50 (Leishmania major): 4 µM
- IC50 (Leishmania donovani [4]): 0.65 µM

SMILES: COc1cc(/C=C/C(=O)c2ccc(NC(=O)Nc3ccc(Cl)cc3)cc2)cc(OC)c1OC
- IC50 (Plasmodium falciparum [5]): 1.76 µM

SMILES: C=CC(C)(C)c1cc(/C=C/C(=O)c2ccc(O)cc2)c(OC)cc1Cl
- MIC (Staphylococcus aureus [6]): 10 µg/mL

SMILES: O=C(Nc1ccc(Cl)cc1)Nc1ccc(C(=O)/C=C/c2ccc(Cl)cc2Cl)cc1
- IC50 (Plasmodium falciparum [5]): 1.76 µM

SMILES: COc1ccc(OC)c(C(=O)/C=C/c2ccc(N(C)C)cc2)c1
- IC50 (RAW): 0.7 µM

SMILES: Cc1ccc(/C=C/C(=O)c2ccc(C)cc2)cc1 [4,4'-DIMETHYLCHALCONE]
- MIC (Colletotrichum truncatum [7]): 6.25 µg/mL (≈ 26.4 µM)

SMILES: O=C(/C=C/c1cccc(I)c1)c1ccccc1O
- inhibition at 12.5 µg/mL [8]: 90%

SMILES: COc1c(O)ccc(C(=O)/C=C/c2ccccc2)c1O [LARREIN]
- MIC (Colletotrichum truncatum [9]): 6.25 µg/mL (≈ 23.1 µM)
- MIC (Diaporthe longicolla): 6.25 µg/mL (≈ 23.1 µM)

SMILES: COc1ccc(C(=O)/C=C/c2ccc(Cl)cc2Cl)c(OC)c1OC
- IC50 (Plasmodium falciparum [3]): 6.5 µM

SMILES: COc1ccc(C(=O)/C=C/c2ccc(F)cc2F)c(OC)c1
- IC50 (Plasmodium falciparum [3]): 6.5 µM

SMILES: C=C(C)C(O)Cc1c(O)ccc(C(=O)/C=C/c2ccc(O)cc2)c1O (stereo not given)
- IC50 (Candida albicans): 15 µg/mL (≈ 44.1 µM)
- IC50 (Cryptococcus neoformans): 7 µg/mL (≈ 20.6 µM)

SMILES: O=C(/C=C/c1ccc(Cl)cc1)c1ccccc1 [4-CHLORO CHALCONE]
- IC50 (Trypanosoma cruzi): 21.9 µM

SMILES: O=C(/C=C/c1cccc(Cl)c1)c1ccccc1O
- inhibition at 12.5 µg/mL [8]: 90%

SMILES: O=C(/C=C/c1ccc(O)c(O)c1)c1ccc(O)cc1O
- inhibition [10]: 50%

SMILES: O=C(CCc1ccc(O)cc1)c1c(O)cc(O)cc1O
- inhibition [10]: 27%

SMILES: O=C(/C=C/c1ccccc1)c1ccccc1 [CHALCONE]
- IC50 (Leishmania braziliensis): 13.7 µM

SMILES: C=CCOc1ccc(C(=O)/C=C/c2ccc(OC)cc2OC)cc1
- IC50 (Leishmania major): 4 µM
- IC50 (Leishmania donovani [4]): 0.65 µM
- IC50 [11]: 153 µM

SMILES: COc1ccc(C(=O)/C=C/c2ccc(C(F)(F)F)cc2)c(OC)c1
- IC50 (Plasmodium falciparum [3]): 6.5 µM

SMILES: O=C(/C=C/c1ccc(Cl)c(Cl)c1)c1ccc(O)cc1
- IC50 (Plasmodium falciparum [3]): 20 µM

SMILES: O=C(Nc1ccc(Cl)cc1)Nc1ccc(C(=O)/C=C/c2ccc(F)cc2F)cc1
- IC50 (Plasmodium falciparum [5]): 1.76 µM

SMILES: COc1ccc(/C=C/C(=O)c2ccccc2)c(OC)c1
- IC50 (Leishmania major): 4 µM
- IC50 (Leishmania donovani [4]): 0.65 µM

SMILES: O=C(/C=C/c1ccccc1)c1ccc(O)cc1O [2',4'-DIHYDROXYCHALCONE]
- MIC (Colletotrichum truncatum [9]): 6.25 µg/mL (≈ 26 µM)
- MIC (Diaporthe longicolla): 6.25 µg/mL (≈ 26 µM)

SMILES: COc1cc(O)c(C(=O)CCc2ccc(O)cc2)c(O)c1 [ASEBOGENIN]
- IC50 (Staphylococcus aureus [6]): 10 µg/mL (≈ 34.7 µM)
- IC50 (Staphylococcus aureus [12]): 4.5 µg/mL (≈ 15.6 µM)

SMILES: CCc1ccc(/C=C/C(=O)c2ccc(OC)cc2OC)cc1
- IC50 (Plasmodium falciparum [3]): 6.5 µM

SMILES: O=C(/C=C/c1ccccc1)c1ccccc1O [2'-HYDROXYCHALCONE]
- inhibition at 12.5 µg/mL [8]: 61%

SMILES: COc1ccc(/C=C/C(=O)c2ccc(OC)cc2OC)c(OC)c1
- IC50 (Plasmodium falciparum [3]): 6.5 µM

SMILES: O=C(/C=C/c1ccccc1)c1ccc(Cl)cc1O
- inhibition at 12.5 µg/mL [8]: 89%

SMILES: COc1ccc(C(=O)/C=C/c2ccccc2)c(O)c1
- inhibition at 12.5 µg/mL [8]: 78%

SMILES: COc1ccc(/C=C/C(=O)c2ccccc2O)c(OC)c1
- IC50 (Leishmania major): 4 µM
- IC50 (Leishmania donovani [4]): 0.65 µM

SMILES: CN(C)c1ccc(/C=C/C(=O)c2ccc(O)cc2)cc1
- IC50 (Plasmodium falciparum [3]): 20 µM

SMILES: Cc1cc(C)cc(-c2ccc(N3CCNCC3)c(/C=C/C(=O)c3cccc(NCCN(C)C)c3)c2)c1
- MIC (Staphylococcus aureus [6]): 2 µM
- MIC (Staphylococcus aureus [12]): 2 µM (≈ 0.965 µg/mL)
- MIC (Enterococcus faecium): 5 µM (≈ 2.41 µg/mL)
- MIC (Escherichia coli): 5 µM (≈ 2.41 µg/mL)

SMILES: CC(C)=CCc1c(O)ccc(C(=O)/C=C/c2ccc(O)cc2)c1O [ISOBAVACHALCONE]
- IC50 (Candida albicans): 3 µg/mL (≈ 9.25 µM)
- IC50 (Cryptococcus neoformans): 7 µg/mL (≈ 21.6 µM)

SMILES: CC1(C)C=Cc2c(ccc(C(=O)/C=C/c3ccc(O)cc3)c2O)O1
- Activity (Leishmania donovani [13]): 84%
- Activity (Leishmania donovani [14]): 74%
